In PubChem BioAssay AID256 (DTP/NCI, 2004):
“And” between values parts separate entries of the source, which are not always exact repeats. Identical values can stand only once. Inconclusive results and toxic doses are left out.

System: CD2F1 mice, L1210 leukemia ip, survival T/C
Experiment: NCI In Vivo Anticancer Drug Screen. Data for tumor model L1210 Leukemia (intraperitoneal) in CD2F1 (CDF1) mice
Settings: higher = longer survival
Method in brief: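 In this screen, transplantable tumors were grown in mice given either the compound or its vehicle. Results were expressed as the treated measurement relative to the control measurement.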

[1] = endpoint: mean survival time, dose: 100.0 mg/kg/injection, schedule: Q04DX003 (ip), vehicle: saline with Tween-80
[2] = endpoint: mean survival time, dose: 200.0 mg/kg/injection, schedule: Q04DX003 (ip), vehicle: saline with Tween-80
[3] = endpoint: mean survival time, dose: 400.0 mg/kg/injection, schedule: Q04DX003 (ip), vehicle: saline with Tween-80
[4] = endpoint: mean survival time, dose: 100.0 mg/kg/injection, schedule: Q04DX003 (ip), vehicle: saline
[5] = endpoint: mean survival time, dose: 150.0 mg/kg/injection, schedule: Q01DX001 (ip), vehicle: saline
[6] = endpoint: mean survival time, dose: 300.0 mg/kg/injection, schedule: Q01DX001 (ip), vehicle: saline

SMILES: N=[N+]=CC(=O)OCC(N)C(=O)O (configuration not stated)
- T/C (endpoint: mean survival time, dose: 1.0 mg/kg/injection, schedule: Q03HX016 (ip), vehicle: saline): 168 % of control
- T/C (endpoint: mean survival time, dose: 2.0 mg/kg/injection, schedule: Q03HX016 (ip), vehicle: saline): 168 % of control
- T/C (endpoint: mean survival time, dose: 2.0 mg/kg/injection, schedule: Q03HX024 (ip), vehicle: saline): 153 % of control and 163 % of control
- T/C (endpoint: mean survival time, dose: 4.0 mg/kg/injection, schedule: Q03HX016 (ip), vehicle: saline): 182 % of control
- T/C (endpoint: mean survival time, dose: 4.0 mg/kg/injection, schedule: Q03HX024 (ip), vehicle: saline): 171 % of control and 174 % of control
- T/C (endpoint: mean survival time, dose: 8.0 mg/kg/injection, schedule: Q03HX016 (ip), vehicle: saline): 115 % of control
- T/C (endpoint: mean survival time, dose: 8.0 mg/kg/injection, schedule: Q03HX024 (ip), vehicle: saline): 113 % of control and 115 % of control
- T/C (endpoint: mean survival time, dose: 12.5 mg/kg/injection, schedule: Q01DX009 (ip), vehicle: saline): 167 % of control
- T/C (endpoint: mean survival time, dose: 25.0 mg/kg/injection, schedule: Q01DX007 (ip), vehicle: saline): 122 % of control
- T/C (endpoint: mean survival time, dose: 25.0 mg/kg/injection, schedule: Q01DX009 (ip), vehicle: saline): 100 % of control
- T/C (endpoint: mean survival time, dose: 50.0 mg/kg/injection, schedule: Q01DX007 (ip), vehicle: saline): 96 % of control
- T/C (endpoint: mean survival time, dose: 50.0 mg/kg/injection, schedule: Q03DX003 (ip), vehicle: saline): 151 % of control

SMILES: C[Si](C)(C)OC1CC(=O)OC1n1cc(F)c(=O)[nH]c1=O (configuration not stated)
- T/C (endpoint: median survival time, dose: 12.5 mg/kg/injection, schedule: Q01DX005 (ip), vehicle: saline): 103 % of control
- T/C (endpoint: median survival time, dose: 25.0 mg/kg/injection, schedule: Q01DX005 (ip), vehicle: saline): 107 % of control
- T/C (endpoint: median survival time, dose: 50.0 mg/kg/injection, schedule: Q01DX005 (ip), vehicle: saline): 113 % of control
- T/C (endpoint: median survival time, dose: 100.0 mg/kg/injection, schedule: Q01DX005 (ip), vehicle: saline): 116 % of control

SMILES: C/C(=N/O)c1ccc(C)cc1
- T/C (endpoint: mean survival time, dose: 100.0 mg/kg/injection, schedule: Q01DX009 (ip), vehicle: saline with Tween-80): 94 % of control
- T/C [1]: 105 % of control
- T/C (endpoint: mean survival time, dose: 200.0 mg/kg/injection, schedule: Q01DX009 (ip), vehicle: saline with Tween-80): 91 % of control
- T/C [2]: 107 % of control
- T/C (endpoint: mean survival time, dose: 400.0 mg/kg/injection, schedule: Q01DX009 (ip), vehicle: saline with Tween-80): 93 % of control
- T/C [3]: 102 % of control

SMILES: CC(=O)Nc1ccn(C2OC(CO)C(O)C2O)c(=O)n1 (configuration not stated)
- T/C (endpoint: mean survival time, dose: 12.5 mg/kg/injection, schedule: Q03HX024 (ip), vehicle: saline): 196 % of control
- T/C (endpoint: mean survival time, dose: 25.0 mg/kg/injection, schedule: Q03HX024 (ip), vehicle: saline): 274 % of control
- T/C (endpoint: mean survival time, dose: 37.5 mg/kg/injection, schedule: Q01DX008 (ip), vehicle: saline): 150 % of control
- T/C (endpoint: mean survival time, dose: 50.0 mg/kg/injection, schedule: Q03HX024 (ip), vehicle: saline): 257 % of control
- T/C (endpoint: mean survival time, dose: 50.0 mg/kg/injection, schedule: Q04DX003 (ip), vehicle: saline): 113 % of control
- T/C (endpoint: mean survival time, dose: 75.0 mg/kg/injection, schedule: Q01DX008 (ip), vehicle: saline): 160 % of control
- T/C [4]: 117 % of control
- T/C [5]: 106 % of control
- T/C (endpoint: mean survival time, dose: 150.0 mg/kg/injection, schedule: Q01DX008 (ip), vehicle: saline): 174 % of control
- T/C [6]: 107 % of control
- T/C (endpoint: mean survival time, dose: 600.0 mg/kg/injection, schedule: Q01DX001 (ip), vehicle: saline): 107 % of control
- T/C (endpoint: mean survival time, dose: 1200.0 mg/kg/injection, schedule: Q01DX001 (ip), vehicle: saline): 104 % of control

SMILES: CC(N)CCC(C)(C)O (configuration not stated)
- T/C [4]: 92 % of control
- T/C (endpoint: mean survival time, dose: 200.0 mg/kg/injection, schedule: Q04DX003 (ip), vehicle: saline): 100 % of control

SMILES: O=C(CCCN1CCC(C(O)c2ccc(F)cc2)CC1)c1ccc(F)cc1 (configuration not stated)
- T/C (endpoint: median survival time, dose: 6.25 mg/kg/injection, schedule: Q01DX009 (ip), vehicle: saline with Tween-80): 103 % of control and 109 % of control and 112 % of control
- T/C (endpoint: median survival time, dose: 6.25 mg/kg/injection, schedule: Q06HX014 (oral), vehicle: saline with Tween-80): 104 % of control
- T/C (endpoint: median survival time, dose: 12.5 mg/kg/injection, schedule: Q01DX009 (ip), vehicle: saline with Tween-80): 120 % of control and 108 % of control
- T/C (endpoint: median survival time, dose: 12.5 mg/kg/injection, schedule: Q01DX009 (oral), vehicle: saline with Tween-80): 111 % of control
- T/C (endpoint: median survival time, dose: 12.5 mg/kg/injection, schedule: Q06HX014 (oral), vehicle: saline with Tween-80): 105 % of control
- T/C (endpoint: median survival time, dose: 25.0 mg/kg/injection, schedule: Q01DX009 (ip), vehicle: saline with Tween-80): 121 % of control
- T/C (endpoint: median survival time, dose: 25.0 mg/kg/injection, schedule: Q01DX009 (oral), vehicle: saline with Tween-80): 105 % of control
- T/C (endpoint: median survival time, dose: 25.0 mg/kg/injection, schedule: Q04DX003 (oral), vehicle: saline with Tween-80): 102 % of control
- T/C (endpoint: median survival time, dose: 25.0 mg/kg/injection, schedule: Q06HX014 (oral), vehicle: saline with Tween-80): 105 % of control
- T/C (endpoint: median survival time, dose: 29.7 mg/kg/injection, schedule: Q01DX009 (oral), vehicle: saline with Tween-80): 109 % of control
- T/C (endpoint: median survival time, dose: 44.5 mg/kg/injection, schedule: Q01DX009 (oral), vehicle: saline with Tween-80): 111 % of control
- T/C (endpoint: median survival time, dose: 50.0 mg/kg/injection, schedule: Q01DX009 (ip), vehicle: saline with Tween-80): 123 % of control and 124 % of control
- T/C (endpoint: median survival time, dose: 50.0 mg/kg/injection, schedule: Q01DX009 (oral), vehicle: saline with Tween-80): 115 % of control
- T/C (endpoint: median survival time, dose: 50.0 mg/kg/injection, schedule: Q04DX003 (oral), vehicle: saline with Tween-80): 112 % of control
- T/C (endpoint: median survival time, dose: 50.0 mg/kg/injection, schedule: Q06HX014 (oral), vehicle: saline with Tween-80): 113 % of control
- T/C (endpoint: median survival time, dose: 66.7 mg/kg/injection, schedule: Q01DX009 (oral), vehicle: saline with Tween-80): 118 % of control
- T/C (endpoint: median survival time, dose: 100.0 mg/kg/injection, schedule: Q01DX009 (ip), vehicle: saline with Tween-80): 118 % of control
- T/C (endpoint: median survival time, dose: 100.0 mg/kg/injection, schedule: Q01DX009 (oral), vehicle: saline with Tween-80): 118 % of control
- T/C (endpoint: median survival time, dose: 100.0 mg/kg/injection, schedule: Q04DX003 (oral), vehicle: saline with Tween-80): 111 % of control
- T/C (endpoint: median survival time, dose: 200.0 mg/kg/injection, schedule: Q04DX003 (oral), vehicle: saline with Tween-80): 115 % of control

SMILES: CC(=O)CC(=O)C1CCC(C(=O)CC(C)=O)CC1 (configuration not stated)
- T/C [1]: 95 % of control
- T/C [2]: 91 % of control

SMILES: CC1CC(C)SC(C)S1 (configuration not stated)
- T/C (endpoint: mean survival time, dose: 50.0 mg/kg/injection, schedule: Q04DX002 (ip), vehicle: saline with Tween-80): 102 % of control
- T/C (endpoint: mean survival time, dose: 100.0 mg/kg/injection, schedule: Q04DX002 (ip), vehicle: saline with Tween-80): 105 % of control
- T/C (endpoint: mean survival time, dose: 200.0 mg/kg/injection, schedule: Q04DX002 (ip), vehicle: saline with Tween-80): 97 % of control

SMILES: O=C1OC(C(=O)O)Cc2ccccc21 (configuration not stated)
- T/C (endpoint: mean survival time, dose: 50.0 mg/kg/injection, schedule: Q01DX001 (ip), vehicle: saline): 102 % of control
- T/C (endpoint: mean survival time, dose: 100.0 mg/kg/injection, schedule: Q01DX001 (ip), vehicle: saline): 100 % of control
- T/C (endpoint: mean survival time, dose: 200.0 mg/kg/injection, schedule: Q01DX001 (ip), vehicle: saline): 110 % of control
- T/C (endpoint: mean survival time, dose: 400.0 mg/kg/injection, schedule: Q01DX001 (ip), vehicle: saline): 103 % of control

SMILES: COc1cc2ccnc(Cc3ccc4c(c3)OCO4)c2cc1OC
- T/C (endpoint: mean survival time, dose: 100.0 mg/kg/injection, schedule: Q01DX009 (ip), vehicle: saline): 94 % of control
- T/C (endpoint: mean survival time, dose: 100.0 mg/kg/injection, schedule: Q04DX003 (ip), vehicle: saline sonified): 95 % of control
- T/C (endpoint: mean survival time, dose: 200.0 mg/kg/injection, schedule: Q01DX009 (ip), vehicle: saline): 95 % of control
- T/C (endpoint: mean survival time, dose: 200.0 mg/kg/injection, schedule: Q04DX003 (ip), vehicle: saline sonified): 105 % of control
- T/C (endpoint: mean survival time, dose: 400.0 mg/kg/injection, schedule: Q01DX009 (ip), vehicle: saline): 95 % of control
- T/C (endpoint: mean survival time, dose: 400.0 mg/kg/injection, schedule: Q04DX003 (ip), vehicle: saline sonified): 93 % of control

SMILES: CCCC(CC)C(=O)CC1CCCCC1 (configuration not stated)
- T/C [1]: 105 % of control
- T/C [2]: 94 % of control
- T/C [3]: 98 % of control

SMILES: COc1cc(C)c(NC(C)=O)c([N+](=O)[O-])c1
- T/C (endpoint: mean survival time, dose: 75.0 mg/kg/injection, schedule: Q01DX001 (ip), vehicle: saline): 100 % of control
- T/C [5]: 95 % of control
- T/C [6]: 95 % of control
